Test systems include CCRF-CEM; EKVX; HCT-15; HL-60; HOP-62; HOP-92; HT-29; MCF7; MDA-N; MOLT-4; NCI-H522; OVCAR-3; OVCAR-8; RPMI-8226; SF-295; SK-MEL-28; SN12C; SR; SW-620; UACC-257.
Experiment in all cases: NCI tumour cell line growth inhibition, 48 h

The source of these data is ChEMBL document CHEMBL1201862, “PubChem BioAssay data set” (2004).

SMILES strings stand for the structures.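 Interpolation was linear, between the two tested concentrations surrounding the appropriate level; five concentrations were tested over 48 hours in 96-well plates. GI50 = concentration required for 50% inhibition of growth.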 Calls of active or inactive are those of the source. Cut-off read from the data, not from the text of the source: active = GI50 up to about 1.1 µM and inactive = higher.

`Oc1ccccc1/C=N/N1C(=S)N(c2ccccc2)C(=N\c2ccccc2)/C1=N/c1ccccc1`: the GI50 is > 37 µM (inactive) in the test with CCRF-CEM; 14.9 µM (inactive) in the test with EKVX; 35 µM in the test with HCT-15; 30 µM (inactive) in the test with HL-60; 9.35 µM (inactive) in the test with HOP-62; 4.57 µM (inactive) with HOP-92. The GI50 in the test on HT-29 is 3.63 µM (inactive); in the test with MCF7 it was > 100 µM (inactive); with MDA-N, 18.5 µM (inactive); with MOLT-4 it was > 33.3 µM (inactive); with NCI-H522, 3.89 µM (inactive); with OVCAR-3 it was 15 µM (inactive). Besides, the GI50 in the test with OVCAR-8 was 4.97 µM (inactive); with RPMI-8226, > 35.6 µM (inactive); with SF-295, 8.39 µM (inactive); in the test with SK-MEL-28 it was 26.8 µM (inactive); in the test with SN12C, 12.4 µM (inactive); in the test with SR, 18.7 µM (inactive). Further, the GI50 was 22.3 µM (inactive) in the test with SW-620 and 25.1 µM (inactive) with UACC-257.
With `O=C(O)CNCc1c2ccccc2nc2ccccc12`, the GI50 in the test with CCRF-CEM is 7.24 µM (inactive); with EKVX, 38.4 µM (inactive); in the test with HCT-15, 34.4 µM; in the test on HL-60, 7.64 µM (inactive); in the test with HOP-62 it was 43.9 µM (inactive); in the test with HOP-92 it was 15.6 µM (inactive). Also, the GI50 in the test on HT-29 is 27.3 µM (inactive); with MCF7 it was 27.7 µM (inactive); with MDA-N, 32.4 µM (inactive); with MOLT-4, 6.27 µM (inactive); with NCI-H522, 22 µM (inactive); in the test on OVCAR-3, 38.6 µM (inactive). For the same compound, the GI50 was 32.9 µM (inactive) in the test on OVCAR-8; 8.43 µM (inactive) in the test with RPMI-8226; 48.4 µM (inactive) with SF-295; 59.6 µM (inactive) with SK-MEL-28; 44.4 µM (inactive) in the test with SN12C; 7.33 µM (inactive) with SR. The GI50 with SW-620 was 26.4 µM (inactive); with UACC-257, 34.1 µM (inactive).
Regarding `CC(C)NC(=O)OCc1c(COC(=O)NC(C)C)c(-c2cc[n+](COC(=O)C(C)C)cc2)n2c1CCC2`, the GI50 in the test on CCRF-CEM is 39.9 µM (inactive); with EKVX, > 100 µM (inactive); in the test with HCT-15, above 100 µM; in the test with HL-60, 27.8 µM (inactive); with HOP-62 it was > 68.4 µM (inactive); with HOP-92, 69.7 µM (inactive). Moreover, the GI50 was > 100 µM (inactive) in the test on HT-29; 64.4 µM (inactive) with MCF7; > 100 µM (inactive) with MDA-N; > 46.9 µM (inactive) in the test with MOLT-4; > 72.1 µM (inactive) with NCI-H522; > 100 µM (inactive) in the test with OVCAR-3. The GI50 in the test on OVCAR-8 is > 100 µM (inactive); with RPMI-8226, > 100 µM (inactive); in the test with SF-295, > 83.2 µM (inactive); in the test on SK-MEL-28, > 100 µM (inactive); in the test with SN12C it was 62.1 µM (inactive); with SR it was > 25.2 µM (inactive). Also, the GI50 with SW-620 and with UACC-257 was > 100 µM (inactive) throughout.
`O=c1[nH]nc(-c2ccccc2)n1/N=C/c1ccc([N+](=O)[O-])cc1`: the GI50 is > 100 µM (inactive) in the test with CCRF-CEM; > 80.4 µM (inactive) in the test with EKVX; above 100 µM with HCT-15; > 100 µM (inactive) with HL-60; 11 µM (inactive) in the test on HOP-62; 10 µM (inactive) in the test on HOP-92. For the same compound, the GI50 is > 100 µM (inactive) with HT-29; > 60.1 µM (inactive) in the test with MCF7; > 100 µM (inactive) in the test on MDA-N; > 100 µM (inactive) in the test with MOLT-4; > 100 µM (inactive) in the test with NCI-H522; 19.7 µM (inactive) with OVCAR-3. Moreover, the GI50 was 10.2 µM (inactive) in the test on OVCAR-8; > 100 µM (inactive) in the test with RPMI-8226; 27.2 µM (inactive) with SF-295; > 100 µM (inactive) in the test on SK-MEL-28; > 62.1 µM (inactive) with SN12C; > 100 µM (inactive) in the test with SR. Also, the GI50 in the test on SW-620 and in the test with UACC-257 was > 100 µM (inactive) each time.
For the compound `CC(=O)O[C@H]1CC[C@@]2(C)C(=CC[C@@H]3[C@@H]2CC[C@]2(C)C(=N/O)/C(=C\c4ccccc4)C[C@@H]32)C1`, the GI50 in the test with CCRF-CEM was 17.7 µM (inactive); with EKVX it was 4.86 µM (inactive); in the test with HCT-15 it was 16.5 µM; in the test on HL-60 it was 14.5 µM (inactive); with HOP-62 it was 16.7 µM (inactive); in the test with HOP-92 it was 41.1 µM (inactive). For the same compound, the GI50 in the test on HT-29 is 3.99 µM (inactive); with MCF7, 13 µM (inactive); in the test with MDA-N it was 4.71 µM (inactive); in the test on MOLT-4 it was 3.08 µM (inactive); in the test with NCI-H522 it was 3.53 µM (inactive); with OVCAR-3 it was 11.3 µM (inactive). Further, the GI50 in the test with OVCAR-8 is 9.71 µM (inactive); in the test with RPMI-8226, 33.7 µM (inactive); in the test on SF-295 it was 14.8 µM (inactive); with SK-MEL-28 it was 12.7 µM (inactive); in the test on SN12C, 14.8 µM (inactive); with SR, 3.27 µM (inactive). For the same compound, the GI50 is 20.9 µM (inactive) in the test with SW-620 and 6.52 µM (inactive) in the test on UACC-257.
`CC(=O)CC1(O)C(=O)c2c(Br)sc(Br)c2C1=O`: the GI50 is 15.1 µM (inactive) in the test with CCRF-CEM; 20 µM (inactive) with EKVX; 20.4 µM in the test on HCT-15; 20.6 µM (inactive) with HL-60; 29 µM (inactive) with HOP-62; 18.8 µM (inactive) in the test on HOP-92. For the same compound, the GI50 with HT-29 was 21.7 µM (inactive); in the test with MCF7, 30.1 µM (inactive); in the test on MDA-N, 22.3 µM (inactive); in the test with MOLT-4 it was 32.4 µM (inactive); in the test on NCI-H522, 18.4 µM (inactive); in the test with OVCAR-3, 16.9 µM (inactive). Further, the GI50 is 23 µM (inactive) in the test with OVCAR-8; 31.3 µM (inactive) with RPMI-8226; > 100 µM (inactive) with SF-295; 20.7 µM (inactive) in the test with SK-MEL-28; 19.4 µM (inactive) in the test on SN12C; 21.1 µM (inactive) in the test with SR. Further, the results for the GI50 with SW-620 and in the test on UACC-257 were 25.1 µM (inactive) and 19.6 µM (inactive), respectively.
As to `Cc1ccc([N+](=O)[O-])c2c(NCC(O)CO)ccnc12` (configuration not stated), the GI50 in the test with CCRF-CEM was 83.9 µM (inactive); in the test on EKVX, 19.8 µM (inactive); in the test on HCT-15, 28.8 µM; in the test on HL-60 it was 32.7 µM (inactive); in the test with HOP-62, 73.8 µM (inactive); with HOP-92 it was 34.8 µM (inactive). Further, the GI50 in the test with HT-29 was 30.7 µM (inactive); in the test with MCF7, 32.1 µM (inactive); in the test with MDA-N, 42.3 µM (inactive); with MOLT-4, > 100 µM (inactive); in the test on NCI-H522, > 10 µM (inactive); with OVCAR-3 it was 36.1 µM (inactive). Moreover, the GI50 in the test on OVCAR-8 is 47 µM (inactive); with RPMI-8226, 84.9 µM (inactive); with SF-295, 42.1 µM (inactive); in the test on SK-MEL-28 it was > 100 µM (inactive); in the test with SN12C, 75.3 µM (inactive); with SR it was 95.1 µM (inactive). For the same compound, the GI50 with SW-620 is 49.2 µM (inactive); in the test with UACC-257, 36.4 µM (inactive).
Take `Cc1nn(-c2ccccc2)c2c1C(c1cc3ccccc3nc1Cl)NC(=S)N2` (configuration not stated): the GI50 is 31.9 µM (inactive) in the test on CCRF-CEM; 92.7 µM (inactive) in the test with EKVX; 31.8 µM in the test with HCT-15; 35.5 µM (inactive) in the test on HL-60; > 100 µM (inactive) in the test with HOP-62; 18.2 µM (inactive) with HOP-92. The GI50 in the test with HT-29 is 44.9 µM (inactive); with MCF7, 38 µM (inactive); in the test on MDA-N, 45.7 µM (inactive); in the test on MOLT-4, 29.4 µM (inactive); in the test on NCI-H522 it was 14.3 µM (inactive); in the test with OVCAR-3 it was 54 µM (inactive). The GI50 in the test with OVCAR-8 is 27.9 µM (inactive); in the test with RPMI-8226 it was 20.7 µM (inactive); with SF-295 it was 43.4 µM (inactive); in the test on SN12C, 78.3 µM (inactive); in the test with SR, 44.6 µM (inactive); in the test with SW-620, 30.1 µM (inactive). In addition, in the test on UACC-257, the GI50 is > 100 µM (inactive).
Take `CC[C@H](NC1=C(Cl)C(=O)c2c(O)ccc(O)c2C1=O)C(=O)OC`: the GI50 with CCRF-CEM is 3.5 µM (inactive); with EKVX, > 10 µM (inactive); with HCT-15, 5.33 µM; in the test with HL-60, 3.79 µM (inactive); with HOP-62, > 10 µM (inactive); with HOP-92 it was > 10 µM (inactive). Moreover, the GI50 is 2.78 µM (inactive) with HT-29; 3.94 µM (inactive) in the test with MCF7; 6.55 µM (inactive) in the test with MDA-N; 2.6 µM (inactive) with MOLT-4; 3.53 µM (inactive) in the test on NCI-H522; 4.19 µM (inactive) with OVCAR-3. The GI50 with OVCAR-8 is 4.63 µM (inactive); in the test with RPMI-8226 it was > 10 µM (inactive); with SF-295 it was > 10 µM (inactive); in the test on SN12C it was 3.05 µM (inactive); in the test on SR, 1.64 µM (inactive); in the test with SW-620, 5.79 µM (inactive). The GI50 in the test with UACC-257 was 3.66 µM (inactive).
With `CCCCCCCCCCCCOC1C(COCCN2CCCC2)OC2OC(C)(C)OC21` (configuration not stated), the GI50 in the test on CCRF-CEM was 1.86 µM (inactive); in the test with EKVX, 3.18 µM (inactive); with HCT-15 it was 1.76 µM; with HL-60, 0.927 µM (active); in the test on HOP-62, 1.8 µM (inactive); in the test with HOP-92, 1.39 µM (inactive). Also, the GI50 in the test on HT-29 is 1.55 µM (inactive); in the test with MCF7, 1.71 µM (inactive); in the test with MDA-N, 1.41 µM (inactive); with MOLT-4, 1.92 µM (inactive); in the test on NCI-H522, 1.23 µM (inactive); in the test with OVCAR-3, 1.62 µM (inactive). Besides, the GI50 with OVCAR-8 is 1.64 µM (inactive); with RPMI-8226, 2.52 µM (inactive); with SF-295, 1.86 µM (inactive); in the test on SK-MEL-28 it was 1.72 µM (inactive); with SN12C, 1.82 µM (inactive); with SR it was 1.14 µM (inactive). The GI50 with UACC-257 is 1.75 µM (inactive).
